{"source": "patent US10435399B2", "about": "“HDAC6 inhibitory heterocyclic compound” (TAKEDA PHARMACEUTICAL COMPANY LIMITED, priority 2017, dated 2019)"}
{"target": "T1, HDAC6 enzyme (Homo sapiens, UniProt Q9UBN7)", "T1 construct": "transducing full length HDAC6 gene into Sf-9 insect cells; GST; purchased SignalChem; host or cells: Sf-9 insect cells", "T1 sequence (Q9UBN7 1-1215)": "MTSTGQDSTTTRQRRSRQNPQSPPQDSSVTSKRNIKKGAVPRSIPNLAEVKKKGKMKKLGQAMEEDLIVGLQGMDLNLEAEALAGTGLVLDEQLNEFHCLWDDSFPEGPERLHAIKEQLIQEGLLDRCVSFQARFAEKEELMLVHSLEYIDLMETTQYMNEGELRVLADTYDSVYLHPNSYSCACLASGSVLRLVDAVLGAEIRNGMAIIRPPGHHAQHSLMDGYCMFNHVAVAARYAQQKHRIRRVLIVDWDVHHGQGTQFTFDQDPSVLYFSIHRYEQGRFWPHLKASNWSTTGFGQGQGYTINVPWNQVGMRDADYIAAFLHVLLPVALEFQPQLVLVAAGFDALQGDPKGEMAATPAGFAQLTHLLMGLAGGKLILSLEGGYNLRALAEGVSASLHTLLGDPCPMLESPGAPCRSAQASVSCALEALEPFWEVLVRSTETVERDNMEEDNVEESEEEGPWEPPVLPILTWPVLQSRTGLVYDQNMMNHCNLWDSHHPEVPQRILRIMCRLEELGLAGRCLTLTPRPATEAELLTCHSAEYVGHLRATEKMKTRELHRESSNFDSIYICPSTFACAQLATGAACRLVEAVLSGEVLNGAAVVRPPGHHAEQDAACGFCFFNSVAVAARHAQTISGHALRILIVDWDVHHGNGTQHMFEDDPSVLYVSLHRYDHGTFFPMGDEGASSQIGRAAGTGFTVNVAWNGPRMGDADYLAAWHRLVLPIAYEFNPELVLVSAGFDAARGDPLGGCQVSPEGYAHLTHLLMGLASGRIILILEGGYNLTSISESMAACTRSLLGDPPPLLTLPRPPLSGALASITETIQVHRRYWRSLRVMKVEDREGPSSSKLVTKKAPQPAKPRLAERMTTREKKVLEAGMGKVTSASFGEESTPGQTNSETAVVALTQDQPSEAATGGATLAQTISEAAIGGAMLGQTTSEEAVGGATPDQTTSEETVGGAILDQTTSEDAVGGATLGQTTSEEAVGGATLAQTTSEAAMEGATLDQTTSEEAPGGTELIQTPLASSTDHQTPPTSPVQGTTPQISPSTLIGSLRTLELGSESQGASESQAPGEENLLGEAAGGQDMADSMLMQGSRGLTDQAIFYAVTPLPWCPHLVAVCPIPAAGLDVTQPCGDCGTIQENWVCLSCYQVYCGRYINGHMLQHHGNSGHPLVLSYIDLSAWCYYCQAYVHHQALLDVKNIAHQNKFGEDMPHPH", "test": "HDAC6 enzyme inhibitory activity (HDAC-Glo I/II Assay kit)", "assay_type": "biochemical", "conditions": "10 μM; wells without enzyme = 100% inhibition; read-out: HDAC6 inhibitory rate (%) (10 μM)", "in_short": "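Luminescent HDAC-Glo I/II readout after 20 min room-temperature reaction with substrate-developer, following 60 min compound–enzyme preincubation. Enzyme: full-length HDAC6 from Sf-9 cells, GST-purified; buffer 24 mM Tris-HCl pH 7.5, 0.01% Tween-20, glutathione, salts. Wells lacking enzyme define 100% inhibition.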", "units": {"inhibition at 10 µM": "%"}}
{"smiles": "O=C1c2cc(-c3nnc(C(F)F)o3)cnc2CN1[C@@H]1CCNC[C@@H]1c1ccccc1", "note": "[Example 193, 3-(5-(difluoromethyl)-1,3,4-oxadiazol-2-yl)-6-((3S,4R)-3-phenylpiperidin-4-yl)-6,7-dihydro-5H-pyrrolo[3,4-b]pyridin-5-one]", "inhibition at 10 µM": 102}
{"smiles": "O=C1c2cc(-c3nnc(C(F)F)o3)ccc2CN1[C@@H]1CCCC[C@H]1NC(=O)C1(c2ccccc2)CCC1", "note": "[Example 89, N-((1R,2R)-2-(6-(5-(difluoromethyl)-1,3,4-oxadiazol-2-yl)-1-oxo-1,3-dihydro-2H-isoindol-2-yl)cyclohexyl)-1-phenylcyclobutanecarboxamide]", "inhibition at 10 µM": 100}
{"smiles": "O=C1c2cc(-c3nnc(C(F)F)o3)ccc2CN1N1CCC(F)(F)CC1c1cccc(F)c1", "note": "(stereo not shown) [Example 560, 2-(4,4-difluoro-2-(3-fluorophenyl)piperidin-1-yl)-6-(5-(difluoromethyl)-1,3,4-oxadiazol-2-yl)isoindolin-1-one]", "inhibition at 10 µM": 100}
{"smiles": "O=C1c2cc(-c3nnc(C(F)F)o3)cnc2CN1Cc1cnn2ccccc12", "note": "[Example 458, 3-(5-(difluoro-methyl)-1,3,4-oxadiazol-2-yl)-6-(pyrazolo [1,5-a]pyridin-3-ylmethyl)-6,7-dihydro-5H-pyrrolo [3,4-b] pyridin-5-one]", "inhibition at 10 µM": 100}
{"smiles": "Cn1ccc(-c2ccccc2N2Cc3ccc(-c4nnc(C(F)F)o4)cc3C2=O)n1", "note": "[Example 206, 6-(5-(difluoromethyl)-1,3,4-oxadiazol-2-yl)-2-(2-(1-methyl-1H-pyrazol-3-yl)phenyl)isoindolin-1-one]", "inhibition at 10 µM": 100}
{"smiles": "O=C1c2cc(-c3nnc(C(F)F)o3)ccc2CN1c1ccc(F)cc1-c1ccn[nH]1", "note": "[Example 467, 6-(5-(difluoro-methyl)-1,3,4-oxadiazol-2-yl)-2-(4-fluoro-2-(1H-pyrazol-5-yl)phenyl) isoindolin-1-one]", "inhibition at 10 µM": 101}
{"smiles": "COC(=O)N1CC[C@@H](N2Cc3ccc(-c4nnc(C(F)F)o4)cc3C2=O)[C@@H](c2ccccc2)C1", "note": "[Example 128, methyl (3S,4R)-4-(6-(5-(difluoromethyl)-1,3,4-oxadiazol-2-yl)-1-oxo-1,3-dihydro-2H-isoindol-2-yl)-3-phenylpiperidine-1-carboxylate]", "inhibition at 10 µM": 100}
{"smiles": "O=C1c2cc(-c3nnc(C(F)F)o3)cnc2CN1[C@@H]1CCCC[C@H]1NC(=O)C1(F)CC1", "note": "[Example 216, N-((1R,2R)-2-(3-(5-(difluoromethyl)-1,3,4-oxadiazol-2-yl)-5-oxo-5,7-dihydro-6H-pyrrolo[3,4-b]pyridin-6-yl)cyclohexyl)-1-fluorocyclopropanecarboxamide]", "inhibition at 10 µM": 100}
{"smiles": "CC(=O)N1CC[C@@H](N2Cc3ccc(-c4nnc(C(F)F)o4)cc3C2=O)[C@H](c2ccc(F)cc2)C1", "note": "[Example 509, 2-((3R,4R)-1-acetyl-3-(4-fluorophenyl)piperidin-4-yl)-6-(5-(difluoro-methyl)-1,3,4-oxadiazol-2-yl) isoindolin-1-one]", "inhibition at 10 µM": 99}
{"smiles": "O=C1c2cc(-c3nnc(C(F)F)o3)cnc2CN1c1ccc(F)cc1Br", "note": "[Example 406, 6-(2-bromo-4-fluorophenyl)-3-(5-(difluoromethyl)-1,3,4-oxadiazol-2-yl)-6,7-dihydro-5H-pyrrolo[3,4-b]pyridin-5-one]", "inhibition at 10 µM": 100}
{"smiles": "CS(=O)(=O)c1cccc(-c2ccccc2N2Cc3ccc(-c4nnc(C(F)F)o4)cc3C2=O)c1", "note": "[Example 172, 6-(5-(difluoromethyl)-1,3,4-oxadiazol-2-yl)-2-(3′-(methylsulfonyl)biphenyl-2-yl)isoindolin-1-one]", "inhibition at 10 µM": 100}
{"smiles": "O=C1c2cc(-c3nnc(C(F)F)o3)ccc2CN1[C@@H]1CCCC[C@H]1NC(=O)C(F)(F)C(F)(F)F", "note": "[Example 29, N-((1R,2R)-2-(6-(5-(difluoromethyl)-1,3,4-oxadiazol-2-yl)-1-oxo-1,3-dihydro-2H-isoindol-2-yl)cyclohexyl)-2,2,3,3,3-pentafluoropropanamide]", "inhibition at 10 µM": 101}
{"smiles": "O=C1c2cc(-c3nnc(C(F)F)o3)cnc2CN1[C@@H]1CCCC[C@H]1NC(=O)C1(C(F)F)CC1", "note": "[Example 235, 1-(difluoromethyl)-N-((1R,2R)-2-(3-(5-(difluoromethyl)-1,3,4-oxadiazol-2-yl)-5-oxo-5,7-dihydro-6H-pyrrolo[3,4-b]pyridin-6-yl)-cyclohexyl)cyclopropane-carboxamide]", "inhibition at 10 µM": 99}
{"smiles": "Cn1nc(C(F)(F)F)cc1-c1cc(F)ccc1N1Cc2ccc(-c3nnc(C(F)F)o3)cc2C1=O", "note": "[Example 389, 6-(5-(difluoro-methyl)-1,3,4-oxadiazol-2-yl)-2-(4-fluoro-2-(1-methyl-3-(trifluoro-methyl)-1H-pyrazol-5-yl)phenyl) isoindolin-1-one]", "inhibition at 10 µM": 101}
{"smiles": "CCC(F)(F)C(=O)N[C@@H]1COCC[C@H]1N1Cc2c(F)cc(-c3nnc(C(F)F)o3)cc2C1=O", "note": "[Example 203, N-((3S,4R)-4-(6-(5-(difluoromethyl)-1,3,4-oxadiazol-2-yl)-4-fluoro-1-oxo-1,3-dihydro-2H-isoindol-2-yl)tetrahydro-2H-pyran-3-yl)-2,2-difluorobutanamide]", "inhibition at 10 µM": 100}
{"smiles": "O=C1c2cc(-c3nnc(C(F)F)o3)ccc2CN1CC1CC1", "note": "[Example 56, 2-(cyclopropylmethyl)-6-(5-(difluoromethyl)-1,3,4-oxadiazol-2-yl)isoindolin-1-one]", "inhibition at 10 µM": 92}
{"smiles": "O=C1c2cc(-c3nnc(C(F)F)o3)ccc2CN1c1ccc(F)cc1-n1cc(C2CC2)cn1", "note": "[Example 486, 2-(2-(4-cyclo-propyl-1H-pyrazol-1-yl)-4-fluorophenyl)-6-(5-(difluoro-methyl)-1,3,4-oxadiazol-2-yl) isoindolin-1-one]", "inhibition at 10 µM": 100}
{"smiles": "O=C1c2cc(-c3nnc(C(F)F)o3)ccc2CN1c1ccccc1-c1cccc(Cl)n1", "note": "[Example 305, 2-(2-(6-chloropyridin-2-yl)-phenyl)-6-(5-(difluoro-methyl)-1,3,4-oxadiazol-2-yl)isoindolin-1-one]", "inhibition at 10 µM": 101}
{"smiles": "O=C1c2cc(-c3nnc(C(F)F)o3)cnc2CN1[C@@H]1CCCC[C@H]1NC(=O)C(F)(F)F", "note": "[Example 215, N-((1R,2R)-2-(3-(5-(difluoromethyl)-1,3,4-oxadiazol-2-yl)-5-oxo-5,7-dihydro-6H-pyrrolo[3,4-b]pyridin-6-yl)cyclohexyl)-2,2,2-trifluoroacetamide]", "inhibition at 10 µM": 101}
{"smiles": "O=C1c2cc(-c3nnc(C(F)F)o3)cc(F)c2CN1C[C@H]1COCCN1S(=O)(=O)CC(F)(F)F", "note": "[Example 199, 6-(5-(difluoromethyl)-1,3,4-oxadiazol-2-yl)-4-fluoro-2-(((3S)-4-((2,2,2-trifluoroethyl)sulfonyl)morpholin-3-yl)methyl)isoindolin-1-one]", "inhibition at 10 µM": 100}
{"smiles": "O=C1c2cc(-c3nnc(C(F)F)o3)ccc2CN1c1ccccc1-c1ccc(C(F)F)cc1", "note": "[Example 292, 2-(4′-(difluoromethyl)-biphenyl-2-yl)-6-(5-(difluoromethyl)-1,3,4-oxadiazol-2-yl)isoindolin-1-one]", "inhibition at 10 µM": 97}
{"smiles": "O=C1c2cc(-c3nnc(C(F)F)o3)ccc2CN1c1ccccc1-c1cnn(C2CCOCC2)c1", "note": "[Example 319, 6-(5-(difluoromethyl)-1,3,4-oxadiazol-2-yl)-2-(2-(1-(tetrahydro-2H-pyran-4-yl)-1H-pyrazol-4-yl)phenyl)-isoindolin-1-one]", "inhibition at 10 µM": 86}
